What was measured:
[1] = test system: TD1-iPS cells and ACH-iPS cells; assay: Drug efficacy in disease iPS cell models, chondrocyte differentiation; format: cell-based, human
Source text: iPS cell lines were established from dermal fibroblasts of patients with thanatophoric dysplasia type I (TD1, R248C) and cartilage intangibility (ACH, […]), and dermal fibroblasts of healthy individuals, and induced their differentiation into chondrocytes. Cartilage tissue was formed from healthy iPS cells, whereas a cartilage component was reduced in tissue induced from TD1-iPS cells and tissue induced from ACH-iPS cells (Yamashita et al., Nature, 2014, 513 (7519): 507-11).
Rosuvastatin was used as a positive control. As evaluation items, tissue section staining (Safranin staining), and the expression of mRNAs of COL2A1 and Aggrecan (ACAN) were used as indexes. For testing significance, an unpaired test was conducted. In FIG. 13, * indicates p<0.05.

FGFR3 ACH mice [2] = assay: Bone extension effect using achondroplasia model mice, male and female (Example 3); format: in vivo; conditions: male 1, 3 or 10 mg/kg, female 1, 3 or 6 mg/kg, measured at 43 days old, vs vehicle group
Description: (§1) FGFR3 ACH mice (Naski, M. C. et al., Development, 1998, 125(24): 4977-88; hereinbelow, simply referred to as ACH mice) were used. FVB strain ACH mice were subjected to artificial insemination to produce a large number of F1 hybrid mice. Genomic DNA was then extracted, and the gene type was determined by a PCR method. […] Mice at the age of 43 days were euthanized, and the weight measurement and the bone (femur, tibia, and ulna) length measurement by X-ray photographing were performed. The X-ray photographing was performed using a Faxitron X-Ray DX-50 (AcroBio Corporation), and the measurements were performed with Image J. For testing significance, a Dunnett's multiple comparison test was conducted. In FIGS. 1 to 5, * indicates p<0.05, ** indicates p<0.01, and *** indicates p<0.001.
For testing significance, a Dunnett's multiple comparison test was conducted. In FIGS. 6 to 11, * indicates p<0.05, ** indicates p<0.01, *** indicates p<0.001, and **** indicates p<0.0001.

FGFR3 ACH mice [3] = assay: Bone extension effect using achondroplasia model mouse (Example 2); format: in vivo
Description: as §1
Subsequently, the femur was isolated from the mice after dosing. The cartilage growth plate was then stained with safranin O, and the length thereof was measured. The average width of the growth plate of ACH mice was 148.3.

mutant FGFR3G^380R/+ = conditions: at 50 nM; cited from earlier work
[4] = test system: FGFR3^Y367C/+ mouse model of achondroplasia; conditions: reported in NPL 6; cited from earlier work
[5] = 1 nM, 10th week of differentiation induction, vs cells free of Compound 1, FIG. 13

Row | SMILES | Safranin staining of glycosaminoglycans (cartilage extracellular matrix) ([1]; 1 nM added at each medium change from day 3, analysis at 10th week of differentiation induction, FIG. 12) | Expression of mRNA of ACAN [1, 5] | Expression of mRNA of COL2A1 [1, 5] | Bone extension effect (femur, tibia, ulna length) (FGFR3 ACH mice [2]) | Average width of the femur growth plate (safranin O staining) (FGFR3 ACH mice [3]; ACH mice after dosing, dose not stated, ACH mice without compound 148.3, FIG. 4) | Bone extension effect (femur, tibia, ulna length; growth plate cartilage thickness) (FGFR3 ACH mice [3]; ACH mice, 0.1, 1 or 3 mg/kg intraperitoneal once a day, 5 days on 2 days off, age 21 to 42 days, measured at 43 days old, vs vehicle group) | Kinase inhibitory effect (mutant FGFR3G^380R/+) | Treatment effect on mouse model of achondroplasia [4]
1 | C=CC(=O)N1CC[C@H](n2nc(C#Cc3cc(OC)cc(OC)c3)c3c(N)ncnc32)C1 [Compound 1, 1-[(3S)-3-[4-amino-3-[2-(3,5-dimethoxyphenyl)ethynyl]-1H-pyrazolo[3,4-d]pyrimidin-1-yl]-1-pyrrolidinyl]-2-propen-1-one] | positive safranin staining image was observed | increased | increased | concentration-dependent bone extension effect was observed | 206.4 μm | concentration-dependent bone extension effect was observed |  | 
2 | CCN1CCN(c2ccc(Nc3cc(N(C)C(=O)Nc4c(Cl)c(OC)cc(OC)c4Cl)ncn3)cc2)CC1 [NVP-BGJ398] |  |  |  |  |  |  | has a kinase inhibitory effect | has a treatment effect
